Results on six compounds are retold here after PMC11571015, “Hybrids of Membrane-Translocating Antimicrobial Peptides Show Enhanced Activity through Membrane Permeabilization” (ACS Medicinal Chemistry Letters, 2024).

One assay concerns E. coli. The class given is cell-based, E. coli (Top10 Strain). Conditions: median MIC; microbroth dilution, 1:2 serial dilution 18.2 to 1.8x10-2 μM, 4 × 10^6 CFU/mL, 1 h 37°C in wash buffer pH 7.4, then TSB overnight (18-24 h), OD600; triplicate per plate; mixture: each peptide at the reported concentration. As for the experimental part: (§1) Supplemental Information for Trevellin et al.
(§2) Peptide design and preparation […]
(§3) synthesized by GenScript (Piscataway, NJ) at >95% purity determined by HPLC and dissolved in DI water. Concentrations were measured by triplicate tryptophan absorbance readings at 280 nm (ε=5700 M–1cm–1, l=1 cm) using a ThermoScientific NanoDrop 2000 (Waltham, MA). Buforin II (BF2) included an F10W mutation used in many previous studies1-5 to allow for concentration measurements.
(§4) Bacteria included E. coli (Top10 Strain, Invitrogen/ThermoFisher) containing a plasmid for ampicillin resistance (Novagen) and/or B. subtilis (ATCC #6051). Bacterial growth was performed in TSB (trypticase soy broth) prepared at 3% w/v (30 g of media in 1 L) from BD Difco unless otherwise noted. Overnight cultures were picked from petri dishes or frozen stock and grown for 14-16 hours at 37 °C in TSB with shaking. E. coli overnight cultures were incubated with 25 μg/mL ampicillin. The overnight cultures were then diluted 1:100 in 25 mL TSB and incubated at 37 °C with shaking for 2.5 h. The culture was pelleted via centrifugation at 1500×g for 10 min at room temperature and resuspended in sterile cold wash buffer (10 mM sodium phosphate buffer and 10 mM sodium chloride, pH 7.4). These resuspended bacteria were then used for radial diffusion, microbroth dilution, and propidium iodide assays. […]
(§5) Microbroth dilution assay
(§6) Microbroth dilution assays were used to determine the minimum inhibitory concentration (MIC) of each peptide for E. coli and B. subtilis (ATCC #6051). A 1:2 serial dilution was prepared for a peptide across the top row of a 96-well plate. 100 μL of bacterial suspension (4 × 10^6 CFU/mL, diluted in sterile wash buffer, 10 mM sodium phosphate buffer and 10 mM sodium chloride, pH 7.4) and 10 μL of peptide were mixed to each well in subsequent rows of the plate. The 11 effective peptide concentrations ranged from 18.2 μM to 1.8x10-2 μM, with DI water used as a control, and each concentration was tested in triplicate per plate. After the bacteria and peptide mixtures were incubated in plates at 37°C for 1 hour, 100 μL of 6% w/v TSB was added to each well. For wells containing E. coli, ampicillin was added at a final concentration of 25 µg/ml. The plate was then incubated overnight (18-24 h) at 37°C. After incubation, OD600nm were measured using the SpectraMax M3 microplate reader (Molecular Devices). […]
(§7) relative permeability = F5/F0
(§8) Each peptide was tested with bacteria grown from at least three distinct overnight […]
(§9) The MTS assay is a colorimetric viability assay for mammalian cells. HEK 293 cells (ATCC CRL-1573) were grown in complete growth medium (EMEM, 10% fetal bovine serum, 1% penicillin-streptomycin). Cells were cultured in a T-75 maintenance flask, fed with fresh media every 1-2 days, and passaged approximately every 5-7 days once cells reached 70-90% confluence. During passaging, HEK 293 cells were plated in a 96-well plate at 20,000 cells/well and incubated for 4-6 hours (37 °C, 95% humidity, 5% CO2). Each column of cells (8 replicates) was then incubated overnight with 18.2 µM peptide or a control. After incubation, media was aspirated and refreshed for each well, […]

In a further assay the test system is B. subtilis. The format is cell-based, B. subtilis (ATCC #6051). Particulars: 1 h, pH 7.4. As for the experimental part: as §1, §2, §3, §4, §5, §6, §7, §8, §9

Structures are written as SMILES. ≈ marks a conversion by molar mass, not a printed value.

As to `CC[C@H](C)[C@H](NC(=O)[C@H](CCCNC(=N)N)NC(=O)[C@@H](NC(=O)[C@H](CCCCN)NC(=O)[C@H](CCCCN)NC(=O)[C@H](CC(N)=O)NC(=O)[C@H](CC(=O)O)NC(=O)[C@H](CCCNC(=N)N)NC(=O)[C@H](C)NC(=O)[C@H](CCCCN)NC(=O)[C@H](CCCNC(=N)N)NC(=O)[C@H](CC(C)C)NC(=O)[C@H](CC(C)C)NC(=O)[C@H](CCCNC(=N)N)NC(=O)[C@H](Cc1c[nH]cn1)NC(=O)[C@@H](NC(=O)[C@H](CCCNC(=N)N)NC(=O)CNC(=O)[C@@H](NC(=O)[C@@H]1CCCN1C(=O)[C@H](Cc1c[nH]c2ccccc12)NC(=O)[C@H](CCC(N)=O)NC(=O)[C@H](CC(C)C)NC(=O)CNC(=O)[C@H](C)NC(=O)[C@H](CCCNC(=N)N)NC(=O)[C@H](CO)NC(=O)[C@H](CO)NC(=O)[C@H](CCCNC(=N)N)NC(=O)[C@@H](N)[C@@H](C)O)C(C)C)C(C)C)[C@@H](C)O)C(=O)N[C@@H](Cc1c[nH]c2ccccc12)C(=O)N1CCC[C@H]1C(=O)N[C@@H](CCCNC(=N)N)C(=O)N[C@@H](Cc1c[nH]cn1)C(=O)N[C@@H](CC(C)C)C(=O)N[C@@H](CCC(N)=O)C(=O)N[C@@H](CC(C)C)C(=O)N[C@@H](C)C(=O)N[C@H](C(=O)N[C@@H](CCCNC(=N)N)C(=O)N[C@@H](CC(N)=O)C(=O)O)C(C)C` [BF2-DesHDAP1 (BD)], the “MIC against E. coli” value with E. coli was determined as 1.1 µM (≈ 5.42 µg/mL). The “MIC against B. subtilis” value against B. subtilis was 4.6 µM (≈ 22.7 µg/mL).
In the case of `CC[C@H](C)[C@H](NC(=O)[C@H](CCCNC(=N)N)NC(=O)[C@@H](NC(=O)[C@H](CCCCN)NC(=O)[C@H](CCCCN)NC(=O)[C@H](CC(N)=O)NC(=O)[C@H](CC(=O)O)NC(=O)[C@H](CCCNC(=N)N)NC(=O)[C@H](C)N)[C@@H](C)O)C(=O)N[C@@H](Cc1c[nH]c2ccccc12)C(=O)N1CCC[C@H]1C(=O)N[C@@H](CCCNC(=N)N)C(=O)N[C@@H](Cc1c[nH]cn1)C(=O)N[C@@H](CC(C)C)C(=O)N[C@@H](CCC(N)=O)C(=O)N[C@@H](CC(C)C)C(=O)N[C@@H](C)C(=O)N[C@H](C(=O)N[C@@H](CCCNC(=N)N)C(=O)N[C@@H](CC(N)=O)C(=O)N[C@H](C(=O)N[C@@H](CCCNC(=N)N)C(=O)N[C@@H](CO)C(=O)N[C@@H](CO)C(=O)N[C@@H](CCCNC(=N)N)C(=O)N[C@@H](C)C(=O)NCC(=O)N[C@@H](CC(C)C)C(=O)N[C@@H](CCC(N)=O)C(=O)N[C@@H](Cc1c[nH]c2ccccc12)C(=O)N1CCC[C@H]1C(=O)N[C@H](C(=O)NCC(=O)N[C@@H](CCCNC(=N)N)C(=O)N[C@H](C(=O)N[C@@H](Cc1c[nH]cn1)C(=O)N[C@@H](CCCNC(=N)N)C(=O)N[C@@H](CC(C)C)C(=O)N[C@@H](CC(C)C)C(=O)N[C@@H](CCCNC(=N)N)C(=O)N[C@@H](CCCCN)C(=O)O)C(C)C)C(C)C)[C@@H](C)O)C(C)C` [DesHDAP1-BF2 (DB)], the “MIC against E. coli” value in the assay with E. coli is 1.1 µM (≈ 5.42 µg/mL). For the same compound, the “MIC against B. subtilis” value in the assay with B. subtilis turned out to be 4.6 µM (≈ 22.7 µg/mL).
Regarding `CC[C@H](C)[C@H](NC(=O)[C@H](CCCNC(=N)N)NC(=O)[C@@H](NC(=O)[C@H](CCCCN)NC(=O)[C@H](CCCCN)NC(=O)[C@H](CC(N)=O)NC(=O)[C@H](CC(=O)O)NC(=O)[C@H](CCCNC(=N)N)NC(=O)[C@H](C)NC(=O)[C@@H]1CCCN1C(=O)[C@H](CCCCN)NC(=O)[C@H](CCCNC(=N)N)NC(=O)[C@H](CC(C)C)NC(=O)[C@H](CC(C)C)NC(=O)[C@H](CCCNC(=N)N)NC(=O)[C@H](Cc1c[nH]cn1)NC(=O)[C@@H](NC(=O)[C@H](CCCNC(=N)N)NC(=O)CNC(=O)[C@@H](NC(=O)[C@@H]1CCCN1C(=O)[C@H](Cc1c[nH]c2ccccc12)NC(=O)[C@H](CCC(N)=O)NC(=O)[C@H](CC(C)C)NC(=O)CNC(=O)[C@H](C)NC(=O)[C@H](CCCNC(=N)N)NC(=O)[C@H](CO)NC(=O)[C@H](CO)NC(=O)[C@H](CCCNC(=N)N)NC(=O)[C@@H](N)[C@@H](C)O)C(C)C)C(C)C)[C@@H](C)O)C(=O)N[C@@H](Cc1c[nH]c2ccccc12)C(=O)N1CCC[C@H]1C(=O)N[C@@H](CCCNC(=N)N)C(=O)N[C@@H](Cc1c[nH]cn1)C(=O)N[C@@H](CC(C)C)C(=O)N[C@@H](CCC(N)=O)C(=O)N[C@@H](CC(C)C)C(=O)N[C@@H](C)C(=O)N[C@H](C(=O)N[C@@H](CCCNC(=N)N)C(=O)N[C@@H](CC(N)=O)C(=O)O)C(C)C` [BF2-P-DesHDAP1 (BPD)], in the assay on E. coli, the “MIC against E. coli” value came out at 1.1 µM (≈ 5.53 µg/mL). Also, the “MIC against B. subtilis” value in the assay with B. subtilis was found to be 4.6 µM (≈ 23.1 µg/mL).
In the case of `CC[C@H](C)[C@H](NC(=O)[C@H](CCCNC(=N)N)NC(=O)[C@@H](NC(=O)[C@H](CCCCN)NC(=O)[C@H](CCCCN)NC(=O)[C@H](CC(N)=O)NC(=O)[C@H](CC(=O)O)NC(=O)[C@H](CCCNC(=N)N)NC(=O)[C@H](C)NC(=O)[C@H](C)NC(=O)[C@H](CCCCN)NC(=O)[C@H](CCCNC(=N)N)NC(=O)[C@H](CC(C)C)NC(=O)[C@H](CC(C)C)NC(=O)[C@H](CCCNC(=N)N)NC(=O)[C@H](Cc1c[nH]cn1)NC(=O)[C@@H](NC(=O)[C@H](CCCNC(=N)N)NC(=O)CNC(=O)[C@@H](NC(=O)[C@@H]1CCCN1C(=O)[C@H](Cc1c[nH]c2ccccc12)NC(=O)[C@H](CCC(N)=O)NC(=O)[C@H](CC(C)C)NC(=O)CNC(=O)[C@H](C)NC(=O)[C@H](CCCNC(=N)N)NC(=O)[C@H](CO)NC(=O)[C@H](CO)NC(=O)[C@H](CCCNC(=N)N)NC(=O)[C@@H](N)[C@@H](C)O)C(C)C)C(C)C)[C@@H](C)O)C(=O)N[C@@H](Cc1c[nH]c2ccccc12)C(=O)N1CCC[C@H]1C(=O)N[C@@H](CCCNC(=N)N)C(=O)N[C@@H](Cc1c[nH]cn1)C(=O)N[C@@H](CC(C)C)C(=O)N[C@@H](CCC(N)=O)C(=O)N[C@@H](CC(C)C)C(=O)N[C@@H](C)C(=O)N[C@H](C(=O)N[C@@H](CCCNC(=N)N)C(=O)N[C@@H](CC(N)=O)C(=O)O)C(C)C` [BF2-A-DesHDAP1 (BAD)], the “MIC against E. coli” value in the assay on E. coli was determined as 1.1 µM (≈ 5.5 µg/mL). Besides, the “MIC against B. subtilis” value against B. subtilis worked out at 4.6 µM (≈ 23 µg/mL).
For `CC[C@H](C)[C@H](NC(=O)[C@H](CCCNC(=N)N)NC(=O)[C@@H](NC(=O)[C@H](CCCCN)NC(=O)[C@H](CCCCN)NC(=O)[C@H](CC(N)=O)NC(=O)[C@H](CC(=O)O)NC(=O)[C@H](CCCNC(=N)N)NC(=O)[C@H](C)N)[C@@H](C)O)C(=O)N[C@@H](Cc1c[nH]c2ccccc12)C(=O)N1CCC[C@H]1C(=O)N[C@@H](CCCNC(=N)N)C(=O)N[C@@H](Cc1c[nH]cn1)C(=O)N[C@@H](CC(C)C)C(=O)N[C@@H](CCC(N)=O)C(=O)N[C@@H](CC(C)C)C(=O)N[C@@H](C)C(=O)N[C@H](C(=O)N[C@@H](CCCNC(=N)N)C(=O)N[C@@H](CC(N)=O)C(=O)N1CCC[C@H]1C(=O)N[C@H](C(=O)N[C@@H](CCCNC(=N)N)C(=O)N[C@@H](CO)C(=O)N[C@@H](CO)C(=O)N[C@@H](CCCNC(=N)N)C(=O)N[C@@H](C)C(=O)NCC(=O)N[C@@H](CC(C)C)C(=O)N[C@@H](CCC(N)=O)C(=O)N[C@@H](Cc1c[nH]c2ccccc12)C(=O)N1CCC[C@H]1C(=O)N[C@H](C(=O)NCC(=O)N[C@@H](CCCNC(=N)N)C(=O)N[C@H](C(=O)N[C@@H](Cc1c[nH]cn1)C(=O)N[C@@H](CCCNC(=N)N)C(=O)N[C@@H](CC(C)C)C(=O)N[C@@H](CC(C)C)C(=O)N[C@@H](CCCNC(=N)N)C(=O)N[C@@H](CCCCN)C(=O)O)C(C)C)C(C)C)[C@@H](C)O)C(C)C` [DesHDAP1-P-BF2 (DPB)], in that order: 1.1 µM (≈ 5.53 µg/mL) and 4.6 µM (≈ 23.1 µg/mL).
As for `CC(C)C[C@H](NC(=O)CNC(=O)[C@H](C)NC(=O)[C@H](CCCNC(=N)N)NC(=O)[C@H](CO)NC(=O)[C@H](CO)NC(=O)[C@H](CCCNC(=N)N)NC(=O)[C@@H](N)[C@@H](C)O)C(=O)N[C@@H](CCC(N)=O)C(=O)N[C@@H](Cc1c[nH]c2ccccc12)C(=O)N1CCC[C@H]1C(=O)N[C@H](C(=O)NCC(=O)N[C@@H](CCCNC(=N)N)C(=O)N[C@H](C(=O)N[C@@H](Cc1c[nH]cn1)C(=O)N[C@@H](CCCNC(=N)N)C(=O)N[C@@H](CC(C)C)C(=O)N[C@@H](CC(C)C)C(=O)N[C@@H](CCCNC(=N)N)C(=O)N[C@@H](CCCCN)C(=O)O)C(C)C)C(C)C` [Buforin II (BF2), reference compound], in the assay with E. coli, the “MIC against E. coli” value is more than 18.2 µM.
